{
  "source": "PubChem BioAssay AID2305",
  "about": "(GlaxoSmithKline (GSK), 2010)",
  "data": [
    {"tested_on": "P. falciparum 3D7 growth, pLDH absorbance", "assay": "blood-stage malaria parasite growth potency – strain 3D7, dose response (AID 2305)", "units": {"IC50": "µM"}, "values": [
      {"smiles": "CC(=O)Nc1ccc(OCCN(Cc2ccccc2OC(F)(F)F)c2ccc(C(F)(F)F)c(C#N)c2)c(Cl)c1", "IC50": 0.46},
      {"smiles": "Oc1ccc(CCNc2nc(NCCOc3ccccc3-c3ccccc3)nc(N3CCNCC3)n2)cc1", "IC50": 1.04},
      {"smiles": "Cc1cccc2[nH]c(-c3ccc(-c4cccc(NC(=O)C(=O)c5cccn5C)c4)cc3)nc12", "IC50": 0.98},
      {"smiles": "CC1CN(Cc2ccc(-c3ccc(-c4nc5ccc(F)cc5[nH]4)cc3)cc2)CC(C)O1", "note": "(stereo not given)", "IC50": 0.56},
      {"smiles": "CC(=O)NCCNc1nccc(N2CCc3ncnc(Nc4ccc(OCc5cccc(F)c5)c(Cl)c4)c3C2)n1", "IC50": 0.13},
      {"smiles": "COC(=O)c1cccc(C#CCCOCCCCCCNC[C@H](O)c2cc(Cl)c(N)c(Cl)c2)c1", "IC50": 0.77},
      {"smiles": "N#Cc1ccc2c(c1)CN(C1CCC(NC(=O)/C=C/c3cc(C(F)(F)F)cc(C(F)(F)F)c3)CC1)CCC2", "note": "(stereo not given)", "IC50": 1.39},
      {"smiles": "Cc1ccccc1C1CCN(C2CCC(NC(=O)c3cc4cc(C(C)C)ccc4[nH]3)CC2)CC1", "note": "(stereo not given)", "IC50": 0.69},
      {"smiles": "CC(=O)NCCNc1cc(N2CCc3ncnc(Nc4ccc(OCc5c(F)cccc5F)c(Cl)c4)c3C2)ncn1", "IC50": 0.16},
      {"smiles": "CC1=C(C(=O)OCCOCc2ccccc2)C(c2ccccc2C(F)(F)F)C(C(=O)OCCOCc2ccccc2)=C(C)N1", "IC50": 0.53},
      {"smiles": "OCCN1CCN(Cc2cccc(-c3ccc(-c4nc5ccc(C(F)(F)F)cc5[nH]4)cc3)c2)CC1", "IC50": 0.56},
      {"smiles": "COC(=O)c1cccc(CNCc2cccc(-c3csc(-c4nc5ccccc5[nH]4)c3)c2)c1", "IC50": 0.69},
      {"smiles": "Cn1cc(CN2CCC(CCOC(c3ccccc3)c3ccccc3)CC2)cn1", "IC50": 0.26},
      {"smiles": "Cc1cc(Nc2nc(Nc3cccc(Cl)c3)nc3ccccc23)n[nH]1", "IC50": 0.29},
      {"smiles": "CCn1c(-c2nonc2N)nc2c(-c3ccccc3)ncc(OCCCNCCCN3CCOCC3)c21", "IC50": 0.67},
      {"smiles": "CN(C(=O)c1ccc(Br)cc1)c1ccccc1[N+](=O)[O-]", "IC50": 0.93},
      {"smiles": "Cc1ccc(C2=NNC3(S2)C(=O)N(C)c2ccccc23)cc1", "note": "(stereo not given)", "IC50": 1.02},
      {"smiles": "CCNc1cc(C(=O)N[C@@H](Cc2ccccc2)[C@H](O)CNC(C)(C)CC(C)(C)C)c(F)c(N2CCCCS2(=O)=O)c1", "IC50": 1.01},
      {"smiles": "O=C(NC1CCC(CN2CCC(c3c[nH]c4ccccc34)CC2)CC1)c1cc(-c2ccccc2Cl)oc1C(F)(F)F", "note": "(stereo not given)", "IC50": 0.77},
      {"smiles": "COc1cc(CNC[C@@H](O)[C@H](Cc2ccccc2)NC(=O)c2cc(C3CCCC3)cc(N3CCCC3=O)c2)cc(OC)c1", "IC50": 0.22},
      {"smiles": "S=C(NN=Cc1ccccn1)Nc1ccc2c(c1)OCCO2", "IC50": 1.05},
      {"smiles": "COc1ccc(CON2C(N)=NC(N)=NC2(C)C)cc1OC", "IC50": 0.01},
      {"smiles": "O=C(/C=C/c1ccc(Cl)c(Cl)c1)NCCCCCN1CCC(NC(=O)c2ccc([N+](=O)[O-])cc2)CC1", "IC50": 0.67},
      {"smiles": "CN(CCN1CCC(c2c[nH]c3ccccc23)CC1)c1ccc(-c2nc3cc(Cl)c(Cl)cc3[nH]2)cc1", "IC50": 0.12},
      {"smiles": "CC(Oc1ccc(C(=O)c2ccc(F)cc2)cc1)C(=O)N1CCc2ccccc21", "note": "(stereo not given)", "IC50": 0.41},
      {"smiles": "Cc1cc(C(=O)Nc2ccc3c(ccn3C3CCCN(Cc4ccc(C(F)(F)F)cc4F)CC3)c2)no1", "note": "(stereo not given)", "IC50": 0.76},
      {"smiles": "N#Cc1ccc(N2C[C@@H](OCc3ccccc3)C[C@H]2C(=O)NCCC(c2ccccc2)c2ccccc2)c2ccccc12", "IC50": 0.86},
      {"smiles": "Clc1ccc(-c2cc(-c3csc(NCCN4CCOCC4)n3)on2)c(Cl)c1", "IC50": 0.66},
      {"smiles": "COc1ccc(-c2ccc(NC(=O)c3ccc(F)cc3)cc2)cc1CNC(C)C", "IC50": 0.76},
      {"smiles": "Cc1cc(NC2CCN(CC3CCCCC3)C2)nc(Nc2ccc(Cl)cc2)n1", "note": "(stereo not given)", "IC50": 0.4},
      {"smiles": "c1ccc(CN2CCC(NCc3ccc(-c4ccc(CNC5CCCC5)cc4)cc3)CC2)cc1", "IC50": 0.29},
      {"smiles": "Cc1cccc2[nH]c(-c3ccc(-c4cccc(NC(=O)c5cnn6cccnc56)c4)cc3)nc12", "IC50": 0.87},
      {"smiles": "Cc1noc(C)c1-c1cccc(CNCc2ccc(-c3cccc(-c4nc5ccc(C(F)(F)F)cc5[nH]4)c3)cc2)c1", "IC50": 0.56},
      {"smiles": "Cc1cccc2[nH]c(-c3ccc(-c4ccc(CNCc5cnn(-c6ccccc6)n5)cc4)s3)nc12", "IC50": 0.72},
      {"smiles": "COc1cc(CNCCCCCCNCc2cc(OC)c3ccccc3c2OC)c(OC)c2ccccc12", "IC50": 0.7},
      {"smiles": "COc1ccc2ccccc2c1CNCC1CCN(CC2CCCCC2)CC1", "IC50": 0.76},
      {"smiles": "O=C(/C=C/c1ccc(Cl)c(Cl)c1)NCCCCCN1CCC(NC(=O)Nc2ccc([N+](=O)[O-])cc2)CC1", "IC50": 0.69},
      {"smiles": "Clc1ccc(Nc2nc(NCc3ccccc3)nc(N/N=C/c3ccccn3)n2)cc1", "IC50": 0.78},
      {"smiles": "Cc1[nH]c(C)c(-c2ccc(Br)cc2)c(=O)c1Br", "IC50": 0.64},
      {"smiles": "Cc1nc(-c2cccc3c(NC(=O)Nc4ccc5nccc(N6CCN(C)CC6)c5c4)cccc23)no1", "IC50": 0.23},
      {"smiles": "COc1ccccc1-c1nc2nc(N)nc(N)c2nc1-c1ccccc1OC", "IC50": 1.25},
      {"smiles": "COc1cccc(CNC(=O)NC2CCN(c3ccnc(Nc4cc(OC)c(OC)c(OC)c4)n3)C2)c1", "note": "(stereo not given)", "IC50": 0.71},
      {"smiles": "Cc1c(C)c2c(c(C)c1O)CCC(C)(CCC(=O)O)O2", "note": "(stereo not given)", "IC50": 0.69},
      {"smiles": "O=c1c(NCCCN(Cc2ccc(F)cc2)c2ccccn2)c(NCc2cccnc2)c1=O", "IC50": 0.06},
      {"smiles": "Cc1cc(=O)[nH]c(/N=C(/N)NOCc2ccccc2)n1", "IC50": 0.42},
      {"smiles": "O=C(c1ccc(Cl)cc1Cl)N1CCCC(C(F)(F)F)C1", "note": "(stereo not given)", "IC50": 0.95},
      {"smiles": "CCCCCCCC1=NN2C(=N)C(=Cc3cc(Br)c(OCc4ccc(F)cc4)c(OCC)c3)C(=O)N=C2S1", "IC50": 1.05},
      {"smiles": "OCCN1CCN(C2Cc3ccc(F)cc3Sc3ccc(Cl)cc32)CC1", "note": "(stereo not given)", "IC50": 0.88},
      {"smiles": "O=C(/C=C/c1ccc(Cl)c(Cl)c1)NCCCCCN1CCC(C(=O)Nc2ccc(Cl)cc2)CC1", "IC50": 0.78},
      {"smiles": "C=CCN(C(=O)c1ccc(Cl)c([N+](=O)[O-])c1)c1nc(-c2ccccc2)cs1", "IC50": 0.4},
      {"smiles": "NC(N)=NC(=O)Nc1ccc([N+](=O)[O-])c(Cl)c1", "IC50": 0.88},
      {"smiles": "COc1ccc2c(NN=Cc3cccc(Cl)c3)cc(C)nc2c1", "IC50": 0.73},
      {"smiles": "CN1CCN(C(C(=O)NCc2cc(Cl)cc(Cl)c2)c2ccc(NC(=O)Nc3ccccc3)cc2)CC1", "note": "(stereo not given)", "IC50": 0.69},
      {"smiles": "COc1cccc(Nc2nc(C)cc(Nc3cccc(C#N)c3)n2)c1", "IC50": 1.08},
      {"smiles": "COc1ccccc1COc1c(C)nc(N)nc1N", "IC50": 0.71},
      {"smiles": "NCC1CCCN1Cc1ccc(-c2ccc(-c3nc4ccccc4[nH]3)s2)cc1", "note": "(stereo not given)", "IC50": 0.93},
      {"smiles": "CCc1cc(-c2onc(C(F)(F)F)c2-c2ccccc2)c(O)cc1OC", "IC50": 0.79},
      {"smiles": "Cc1ccc(-c2noc(=O)n2CC(=O)Nc2ccccc2-c2ccccc2)cc1", "IC50": 0.81},
      {"smiles": "c1ccc(Oc2ccc(Nc3nc(NCCc4cnc[nH]4)nc(NC4CCCC4)n3)cc2)cc1", "IC50": 1.03},
      {"smiles": "CN(C)CCNC(=O)c1ccc(-c2cnc3ccc(NCc4ccc(Cl)c(Cl)c4)nn23)cc1", "IC50": 0.91},
      {"smiles": "OC(CNCc1cccc(Oc2ccc(Cl)cc2)c1)c1cccc(C(F)(F)F)c1", "note": "(stereo not given)", "IC50": 0.97},
      {"smiles": "O=C(NC1CC1)c1ccc(Cn2c(SCc3cccc([N+](=O)[O-])c3)nc3ccccc3c2=O)cc1", "IC50": 0.76},
      {"smiles": "O=C(CSc1nccn1C1CCCC1)Nc1cc(C(F)(F)F)ccc1Cl", "IC50": 0.38},
      {"smiles": "CNC(=O)CNC(=O)COc1cccc2ccccc12", "IC50": 0.23},
      {"smiles": "O=C(/C=C/c1ccc(Cl)c(Cl)c1)NCCCCCN1CCCC(CNS(=O)(=O)c2cccc(C(F)(F)F)c2)C1", "note": "(stereo not given)", "IC50": 0.95},
      {"smiles": "Fc1cccc(COc2ccc(Nc3ncnc4sc(C#CC5CCCCN5)cc34)cc2Cl)c1", "note": "(stereo not given)", "IC50": 0.54},
      {"smiles": "COc1cc(-c2nc(-c3ccc4c(c3)CCC4=NO)c(-c3ccncc3)[nH]2)ccc1OCCN1CCCCC1", "IC50": 0.79},
      {"smiles": "O=C(NC1CCCc2ccccc21)C1CCCN(C(=O)c2ccc(O)c(-c3ccc(Cl)c(Cl)c3)c2)C1", "note": "(stereo not given)", "IC50": 1.14},
      {"smiles": "CN(C)c1ccc(-c2ccc(C(=O)NC3CCN(Cc4cccc(C(F)(F)F)c4)CC3)s2)cc1", "IC50": 0.99},
      {"smiles": "Nc1ccc(-c2nc3cc(C4=N[C@H]5CCCC[C@H]5N4)ccc3o2)cc1[N+](=O)[O-]", "IC50": 1.12}
    ]}
  ]
}
